# Source: publication PMC8750417, “Intracellular Amplifiers of Reactive Oxygen Species Affecting Mitochondria as Radiosensitizers” (Cancers, 2021)
# Where two headings read alike, the source gives them in different places.
# Columns and labels:
# [1] = test system: A2780 cells; experiment: Cell viability, MTT assay, A2780; type: cell-based, human
# Protocol: Determination of viability of cells in the presence of prodrugs and controls A2780 and BL-2 cells The medium was removed, and the cells were washed two times with DPBS, trypsinated, and resuspended in RPMI 1640 medium (A2780) supplemented with 5% FBS (for 24 h and 48 h assay) or 10% FBS (for 96 h assay) , 1% L-glutamine, and 1% penicillin/streptomycin.
# A2780 cells: This suspension was spread in the wells of a 96 -well microtiter plate (25000 cells for A2780 per well per 100 μL) and left standing at 37 °C in the chamber filled with CO2 (5%) for overnight. Stock solutions of prodrugs of different concentra tions (1 μL, solvent dmso, final concentrations in wells were 2, 5, 10, 30, 50 μM) were added to the wells and incubated for specific periods of time. Four experiments were conducted for each concentration of the prodrug. Finally, 3-(4,5-dimethylthiazol-2-yl)-2,5-diphenyltetrazolium bromide (MTT, 20 μL of the solution prepared by dissolving MTT (5 mg) in DPBS buffer (1 mL)) was added to each well, incubated for 3 h, treated with sodium dodecyl sulfate (SDS) solution (90 μL, 10% solution in 0.01 M aqueous HC l), and incubated overnight. Afterward, the intensity of the absorbance at 590 nm was measured.
# MTT is converted in live cells to blue dye with the absorbance maximum λ max at 590 nm.
# The absorbance at 690 nm was taken as a baseline value. The baseline corrected absorbance at 590 nm (A(590 nm) − A(690 nm)) was applied to calculate the relative number of viable cells. IC50 values were determined by fitting the experimental data expressing the number of viable cells (%, Y-axis) versus drug concentration (μM, X-axis) with a line curve and the X-axis value corresponding to 50% viability was considered as IC50 value according to the line curve (Figure S50, Table S2). […]
# [2] = test system: Jurkat cells; experiment: Jurkat flow cytometry (AnnexinA5/PI viability, DiIC1(5) MMP, monobromobimane GSH, cell cycle); type: cell-based, human; settings: for IC50: 48 h incubation
# Protocol: Jurkat cells The cells were counted in MUSE Cell Analyzer using MUSE® Count &Viability Assay Kit (Merck-Millipore, Billerica, MA, USA) and adjusted to a density of 1.0 x 10^5/ml in RPMI 1640 medium (with 10% FCS and 1% glutamine). 9.000 cells per well per 90 µL were seeded into 96 well culture plates. The 30 mM prodrug stock solutions in DMSO were diluted to 300 µM, 100 µM, 30 µM and 10 µM in cell culture medium and 10 µL of the dilutions was pipetted to the cells, receiving final test concentrations of 30 µM, 10 µM, 3 µM and 1 µM. Every concentration was tested in triplicates. Cells with corresponding amounts of DMSO served as negative controls. After 48 h cells were mixed and 25 µL of […]
# the cell suspension was incubated with 200 µL of freshly prepared staining solution, consisting of AnnexinA5-Fitc (1 µL), 1,1′,3,3,3′,3′-hexamethylindodicarbocyanine iodide (DiIC1(5), 0.4 µL) (both from ThermoFisher Scientific, Waltham, MA, USA), propidium iodide (PI, 67 ng) and monobromobimane (MBB, 33 µM, both from Sigma-Aldrich, Taufkirchen, Germany) per 1 ml Ringer’s solution (Fresenius Kabi AG, Bad Homburg, Germany). Cells were incubated for 20 min at 4°C and then analyzed in Gallios cytofluorometer™ (Beckman Coulter, Fullerton, CA, USA). Fitc and propidium iodide were excited at 488 nm; Fitc fluorescence was recorded on the FL1 sensor (525/38 nm band pass, BP) and propidium iodide fluorescence was detected on FL3 sensor (620/30 nm BP), DiIC1(5) fluorescence was excited at 638 nm and detected on FL6 sensor at 675/20 nm BP, and monobromobimane fluorescence was excited at 405 nm and detected on FL9 sensor at 430/40 nm BP. To eliminate any fluorescence bleed-through, electronic compensation was used. Data were analyzed employing Kaluza™ software Version 1.2 (Beckman Coulter, Fullerton, CA, USA) and processed in Microsoft Excel (Figures S51-S54, Table S5). Cells negative for Annexin A5-Fitc and propidium iodide were considered viable. IC50 values were determined by fitting the % values of Ax-PI- cells versus drug concentration with a sigmoidal curve using GraphPad Prism software. Reduced glutathione (an intracellular thiol) can be detected by monobromobimane, a dye that becomes fluorescent after non-enzymatic binding to thiols.[S3] For analysis of amount of mitochondrial membrane potential or reduced glutathione the mean fluorescence index (MFI) was determined from viable cells by gating on Ax -PI- events.
# Table S5. Effects of the prodrugs on the viability of Jurkat cell lines (IC50 values) after 48
# [3] = test system: SAS cells; experiment: Cytotoxicity MTT assay, SAS; type: cell-based, human; settings: for EC50: read-out: 50% cell survival (EC50)
# Protocol: (§1) Optimization of concentration of prodrugs and controls / MTT assay
# (§2) The MTT assay was also applied to assess the impact of various drugs (0.01-100 µM) on the viability of the two human head and neck squamous carcinoma cell (HNSCC) lines SAS and FaDu as well as retinal pigment epithelial ARPE-19 cells and human fibroblasts (HF). Cells were seeded into 96-well plates at concentrations of 4000 and 2000 cells per […]
# (§3) h before exposure to the drugs. All drug dilutions were prepared from 20 mM stock solutions in DMSO. The final DMSO concentration was set to 0.5% in all sample s including control. After completion of the treatment, the wells were processed according to the routine MTT protocol as described above; the formazan absorbance was then measured on a Biotek Epoch Microplate Spectrophotometer at 590 nm and corrected for the background signal at 620 nm. N≥3 independent experiments were performed for each drug candidate, cell type and treatment interval. Cell survival was recorded as function of the drug concentration, and dose-response curves were fitted with the Boltzmann equation where appropriate. We calculated the half-maximal response (EC50) as well as the EC20 (80% survival) according to the line curve (see Tables S6-S8). EC20-values were used as a basis to select the compound-specific non-toxic drug concentrations for combination with radiotherapy.
# [4] = test system: FaDu cells; experiment: Cytotoxicity MTT assay, FaDu; type: cell-based, human; settings: for EC50: read-out: 50% cell survival (EC50)
# Protocol: as §1, §2, §3
# [5] = test system: human fibroblasts (HF); experiment: Cytotoxicity MTT assay, human fibroblasts; type: cell-based; settings: read-out: 50% cell survival (EC50)
# Protocol: Study of synergy of prodrugs with radiotherapy for SAS and FaDu cells
# as §1, §2, §3
structure (smiles),measurement,setting,value
CC1(C)OB(c2ccc(COC(=O)N(Cc3cccc(CN4CCCCC4)c3)[c-]3cccc3)cc2)OC1(C)C.[Fe+2].c1cc[cH-]c1 [5b],IC50,"[1]; A2780, 48 h incubation",7 ± 2 µM
same,IC50,"[1]; A2780, 96 h incubation",7 ± 2 µM
same,IC50,[2],7.2 ± 0.1 µM
same,80% cell survival (EC20),[3]; 24h,7.0 ± 1.5 µM
same,EC50,[3]; 24h,18.7 ± 4.7 µM
same,80% cell survival (EC20),[3]; 48h,2.4 ± 1.3 µM
same,EC50,[3]; 48h,5.8 ± 0.8 µM
same,80% cell survival (EC20),[4]; 24h,11.5 ± 1.3 µM
same,EC50,[4]; 24h,26.3 ± 3.4 µM
same,EC50,[4]; 48h,19.8 ± 0.3 µM
same,EC50,[5]; 24h,35.5 ± 14.9 µM
same,EC50,[5]; 48h,20.8 ± 4.6 µM
CC1(C)OB(c2ccc(COC(=O)N(Cc3cn(Cc4ccc(Cn5cc(Cc6ccccc6)nn5)cc4)nn3)[c-]3cccc3)cc2)OC1(C)C.[Fe+2].c1cc[cH-]c1 [2c],cell viability at which the effect is saturated,"[1]; A2780, 24 h",70%
same,IC50,"[1]; A2780, 24 h incubation",> 30 µM
same,cell viability at which the effect is saturated,"[1]; A2780, 48 h",50%
same,IC50,"[1]; A2780, 48 h incubation",> 30 µM
same,cell viability at which the effect is saturated,"[1]; A2780, 96 h",43%
same,IC50,"[1]; A2780, 96 h incubation",4 ± 0.5 µM
same,effect on MMP,[2]; 48 h,decrease
same,effect on cell cycle,[2]; 48 h,cell-cycle arrest in the G0/G1 phase
same,effect on intracellular GSH amount,[2]; 48 h,unaffected
same,mechanism of cell death,"[2]; 48 h, Annexin A5/PI",mainly via necrosis
same,IC50,[2],5 ± 2 µM
same,80% cell survival (EC20),[3]; 24h,> 50 µM
same,EC50,[3]; 24h,> 50 µM
same,80% cell survival (EC20),[3]; 48h,10.4 ± 6.8 µM
same,EC50,[3]; 48h,> 50 µM
same,80% cell survival (EC20),[4]; 24h,> 50 µM
same,EC50,[4]; 24h,> 50 µM
same,80% cell survival (EC20),[4]; 48h,18.0 ± 5.1 µM
same,EC50,[4]; 48h,> 50 µM
same,EC50,[5]; 24h,> 50 µM
same,EC50,[5]; 48h,> 50 µM
CCOC(=O)CCCCCn1cc(CN(C(=O)OCc2ccc(B3OC(C)(C)C(C)(C)O3)cc2)[c-]2cccc2)nn1.[Fe+2].c1cc[cH-]c1 [compound 1],IC50,"[1]; A2780, 48 h incubation",32 ± 3 µM
same,IC50,"[1]; A2780, 96 h incubation",30 ± 5 µM
same,effect on MMP,[2]; 48 h,slight increase
same,effect on intracellular GSH amount,[2]; 48 h,slight increase
same,IC50,[2],30 ± 4 µM
"[Fe+2].c1cc[cH-]c1.c1cc[cH-]c1 [compound 6, ferrocene]",IC50,"[1]; A2780, 24 h incubation",> 100 µM
same,IC50,"[1]; A2780, 48 h incubation",> 100 µM
same,IC50,"[1]; A2780, 96 h incubation",> 100 µM
same,IC50,[2],> 100 µM
same,80% cell survival (EC20),[3]; 24h,> 50 µM
same,EC50,[3]; 24h,> 50 µM
same,80% cell survival (EC20),[3]; 48h,> 50 µM
same,EC50,[3]; 48h,> 50 µM
same,80% cell survival (EC20),[4]; 24h,> 50 µM
same,EC50,[4]; 24h,> 50 µM
same,80% cell survival (EC20),[4]; 48h,> 50 µM
same,EC50,[4]; 48h,> 50 µM
same,EC50,[5]; 24h,> 50 µM
same,EC50,[5]; 48h,> 50 µM
